Experimental data from patent US20220281848A1, “PYRAZOLE-SUBSTITUTED PYRROLIDINONES AS HERBICIDES” (FMC Corporation, priority 2019, published 2022).

Tests used:
[1] = system: wheat; test: Test D post-emergence, wheat seed treated with a herbicide safener; assay type: in vivo; settings: "Cereals" Postemergent
Method in brief: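 Safener-seed-treated maize and wheat were sprayed with an emulsifiable formulation diluted in 0.2% v/v adjuvant solution, one day after sowing (pre-emergence) or after about 12 days (post-emergence). Plants were grown in a glasshouse at 24/18 or 20/16 °C with 16 h light; damage was scored 0–100 at 20 DAA (pre) or 15 d (post).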

[2] = system: plants; test: Test D post-emergence, other plants of Tables D2 and D4; assay type: in vivo; settings: for ALOMY damage rating (100=total damage to plant; 0=no damage to plant) / AVEFA damage rating (100=total damage to plant; 0=no damage to plant) / BEAVA damage rating (100=total damage to plant; 0=no damage to plant) / BROTE damage rating (100=total damage to plant; 0=no damage to plant) / BRSNN damage rating (100=total damage to plant; 0=no damage to plant) / CHEAL damage rating (100=total damage to plant; 0=no damage to plant) / GALAP damage rating (100=total damage to plant; 0=no damage to plant) / HORVW damage rating (100=total damage to plant; 0=no damage to plant) / KCHSC damage rating (100=total damage to plant; 0=no damage to plant) / LOLPE damage rating (100=total damage to plant; 0=no damage to plant) / POAAN damage rating (100=total damage to plant; 0=no damage to plant) / POLCO damage rating (100=total damage to plant; 0=no damage to plant) / STEME damage rating (100=total damage to plant; 0=no damage to plant) / VERPE damage rating (100=total damage to plant; 0=no damage to plant): "Cereals" Postemergent, evaluated after 15 d
Method in brief: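 Damage was rated visually from 0 (none) to 100 (total), at 20 DAA for pre-emergence and 15 d for post-emergence. Plants grew from safener-treated seed in a glasshouse at 24/18° C. or 20/16° C. day/night, 65% humidity, watered twice daily.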

[3] = post-emergence, rate 130, evaluated after 15 d
[4] = post-emergence, rate 250, evaluated after 15 d
[5] = post-emergence, rate 500, evaluated after 15 d

CN1C[C@H](c2nn(C)c3c(F)cccc23)[C@@H](C(=O)Nc2cccc(F)c2F)C1=O [Compound 2]
TRZAW damage rating (100=total damage to plant; 0=no damage to plant) ([1]; Rates 130, evaluated after 15 d): 20 | TRZAW damage rating (100=total damage to plant; 0=no damage to plant) ([1]; Rates 250, evaluated after 15 d): 20 | TRZAW damage rating (100=total damage to plant; 0=no damage to plant) ([1]; Rates 500, evaluated after 15 d): 60 | ALOMY damage rating (100=total damage to plant; 0=no damage to plant) ([2]; Rates 130): 0 | ALOMY damage rating (100=total damage to plant; 0=no damage to plant) ([2]; Rates 250): 10 | ALOMY damage rating (100=total damage to plant; 0=no damage to plant) ([2]; Rates 500): 30 | AVEFA damage rating (100=total damage to plant; 0=no damage to plant) ([2]; Rates 130): 0 | AVEFA damage rating (100=total damage to plant; 0=no damage to plant) ([2]; Rates 250): 10 | AVEFA damage rating (100=total damage to plant; 0=no damage to plant) ([2]; Rates 500): 40 | BEAVA damage rating (100=total damage to plant; 0=no damage to plant) ([2]; Rates 130): 10 | BEAVA damage rating (100=total damage to plant; 0=no damage to plant) ([2]; Rates 250): 20 | BEAVA damage rating (100=total damage to plant; 0=no damage to plant) ([2]; Rates 500): 10 | BROTE damage rating (100=total damage to plant; 0=no damage to plant) ([2]; Rates 130): 0 | BROTE damage rating (100=total damage to plant; 0=no damage to plant) ([2]; Rates 250): 0 | BROTE damage rating (100=total damage to plant; 0=no damage to plant) ([2]; Rates 500): 30 | BRSNN damage rating (100=total damage to plant; 0=no damage to plant) ([2]; Rates 130): 40 | BRSNN damage rating (100=total damage to plant; 0=no damage to plant) ([2]; Rates 250): 50 | BRSNN damage rating (100=total damage to plant; 0=no damage to plant) ([2]; Rates 500): 40 | CHEAL damage rating (100=total damage to plant; 0=no damage to plant) ([2]; Rates 250): 0 | CHEAL damage rating (100=total damage to plant; 0=no damage to plant) ([2]; Rates 500): 20 | GALAP damage rating (100=total damage to plant; 0=no damage to plant) ([2]; Rates 130): 0 | GALAP damage rating (100=total damage to plant; 0=no damage to plant) ([2]; Rates 250): 10 | GALAP damage rating (100=total damage to plant; 0=no damage to plant) ([2]; Rates 500): 0 | HORVW damage rating (100=total damage to plant; 0=no damage to plant) ([2]; Rates 130): 0 | HORVW damage rating (100=total damage to plant; 0=no damage to plant) ([2]; Rates 250): 20 | HORVW damage rating (100=total damage to plant; 0=no damage to plant) ([2]; Rates 500): 30 | KCHSC damage rating (100=total damage to plant; 0=no damage to plant) ([2]; Rates 130): 0 | KCHSC damage rating (100=total damage to plant; 0=no damage to plant) ([2]; Rates 250): 0 | KCHSC damage rating (100=total damage to plant; 0=no damage to plant) ([2]; Rates 500): 0 | LOLPE damage rating (100=total damage to plant; 0=no damage to plant) ([2]; Rates 130): 0 | LOLPE damage rating (100=total damage to plant; 0=no damage to plant) ([2]; Rates 250): 0 | LOLPE damage rating (100=total damage to plant; 0=no damage to plant) ([2]; Rates 500): 0 | POAAN damage rating (100=total damage to plant; 0=no damage to plant) ([2]; Rates 130): 20 | POAAN damage rating (100=total damage to plant; 0=no damage to plant) ([2]; Rates 250): 70 | POAAN damage rating (100=total damage to plant; 0=no damage to plant) ([2]; Rates 500): 80 | POLCO damage rating (100=total damage to plant; 0=no damage to plant) ([2]; Rates 130): 0 | POLCO damage rating (100=total damage to plant; 0=no damage to plant) ([2]; Rates 250): 20 | POLCO damage rating (100=total damage to plant; 0=no damage to plant) ([2]; Rates 500): 40 | STEME damage rating (100=total damage to plant; 0=no damage to plant) ([2]; Rates 130): 0 | STEME damage rating (100=total damage to plant; 0=no damage to plant) ([2]; Rates 250): 0 | STEME damage rating (100=total damage to plant; 0=no damage to plant) ([2]; Rates 500): 0 | VERPE damage rating (100=total damage to plant; 0=no damage to plant) ([2]; Rates 130): 0 | VERPE damage rating (100=total damage to plant; 0=no damage to plant) ([2]; Rates 250): 10 | VERPE damage rating (100=total damage to plant; 0=no damage to plant) ([2]; Rates 500): 0 | damage to plant (100=total damage to plant; 0=no damage to plant), ABUTH ([2]; post-emergence, ABUTH, rate 500, evaluated after 15 d): 0 | damage to plant (100=total damage to plant; 0=no damage to plant), AMARE [2, 3]: 0 | damage to plant (100=total damage to plant; 0=no damage to plant), AMARE [2, 4]: 10 | damage to plant (100=total damage to plant; 0=no damage to plant), AMARE [2, 5]: 30 | damage to plant (100=total damage to plant; 0=no damage to plant), BIDPI [2, 3]: 0 | damage to plant (100=total damage to plant; 0=no damage to plant), BIDPI [2, 4]: 0 | damage to plant (100=total damage to plant; 0=no damage to plant), BIDPI [2, 5]: 10 | damage to plant (100=total damage to plant; 0=no damage to plant), BRAPL [2, 3]: 70 | damage to plant (100=total damage to plant; 0=no damage to plant), BRAPL [2, 4]: 80 | damage to plant (100=total damage to plant; 0=no damage to plant), BRAPL [2, 5]: 80 | damage to plant (100=total damage to plant; 0=no damage to plant), CYPES [2, 3]: 0 | damage to plant (100=total damage to plant; 0=no damage to plant), CYPES [2, 4]: 0 | damage to plant (100=total damage to plant; 0=no damage to plant), CYPES [2, 5]: 0 | damage to plant (100=total damage to plant; 0=no damage to plant), DIGSA [2, 3]: 60 | damage to plant (100=total damage to plant; 0=no damage to plant), DIGSA [2, 4]: 70 | damage to plant (100=total damage to plant; 0=no damage to plant), DIGSA [2, 5]: 70 | damage to plant (100=total damage to plant; 0=no damage to plant), ECHCG [2, 4]: 80 | damage to plant (100=total damage to plant; 0=no damage to plant), ECHCG [2, 5]: 80 | damage to plant (100=total damage to plant; 0=no damage to plant), ELEIN [2, 3]: 0 | damage to plant (100=total damage to plant; 0=no damage to plant), ELEIN [2, 4]: 0 | damage to plant (100=total damage to plant; 0=no damage to plant), ELEIN [2, 5]: 0 | damage to plant (100=total damage to plant; 0=no damage to plant), EPHHL [2, 3]: 0 | damage to plant (100=total damage to plant; 0=no damage to plant), EPHHL [2, 4]: 10 | damage to plant (100=total damage to plant; 0=no damage to plant), EPHHL [2, 5]: 40 | damage to plant (100=total damage to plant; 0=no damage to plant), GLXMA [2, 3]: 0 | damage to plant (100=total damage to plant; 0=no damage to plant), GLXMA [2, 4]: 0 | damage to plant (100=total damage to plant; 0=no damage to plant), GLXMA [2, 5]: 10 | damage to plant (100=total damage to plant; 0=no damage to plant), IPOHE [2, 3]: 10 | damage to plant (100=total damage to plant; 0=no damage to plant), IPOHE [2, 4]: 20 | damage to plant (100=total damage to plant; 0=no damage to plant), IPOHE [2, 5]: 30 | damage to plant (100=total damage to plant; 0=no damage to plant), ORYSA [2, 3]: 0 | damage to plant (100=total damage to plant; 0=no damage to plant), ORYSA [2, 4]: 0 | damage to plant (100=total damage to plant; 0=no damage to plant), ORYSA [2, 5]: 10 | damage to plant (100=total damage to plant; 0=no damage to plant), PANMI [2, 3]: 0 | damage to plant (100=total damage to plant; 0=no damage to plant), PANMI [2, 4]: 0 | damage to plant (100=total damage to plant; 0=no damage to plant), PANMI [2, 5]: 0 | damage to plant (100=total damage to plant; 0=no damage to plant), SETFA [2, 3]: 70 | damage to plant (100=total damage to plant; 0=no damage to plant), SETFA [2, 4]: 70 | damage to plant (100=total damage to plant; 0=no damage to plant), SETFA [2, 5]: 80 | damage to plant (100=total damage to plant; 0=no damage to plant), SIDSP [2, 3]: 0 | damage to plant (100=total damage to plant; 0=no damage to plant), SIDSP [2, 4]: 0 | damage to plant (100=total damage to plant; 0=no damage to plant), SIDSP [2, 5]: 0 | damage to plant (100=total damage to plant; 0=no damage to plant), SORVU [2, 3]: 0 | damage to plant (100=total damage to plant; 0=no damage to plant), SORVU [2, 4]: 0 | damage to plant (100=total damage to plant; 0=no damage to plant), SORVU [2, 5]: 0
